Laboratory results taken from the CheMixHub viscosity set.
± gives the uncertainty stated by the source.

Test: xn = mol fraction of the nth substance listed
Details: 101 kPa

OCCCCO + CS(C)=O
viscosity (293.15 K, x1 = 0.0436): 2.61 ± 0.05 mPa·s
viscosity (293.15 K, x1 = 0.0879): 3 ± 0.06 mPa·s
viscosity (293.15 K, x1 = 0.1327): 3.46 ± 0.07 mPa·s
viscosity (293.15 K, x1 = 0.1781): 4.01 ± 0.08 mPa·s
viscosity (293.15 K, x1 = 0.2242): 4.66 ± 0.1 mPa·s
viscosity (293.15 K, x1 = 0.2709): 5.43 ± 0.11 mPa·s
viscosity (293.15 K, x1 = 0.3183): 6.36 ± 0.13 mPa·s
viscosity (293.15 K, x1 = 0.3663): 7.51 ± 0.16 mPa·s
viscosity (293.15 K, x1 = 0.415): 8.85 ± 0.18 mPa·s
viscosity (293.15 K, x1 = 0.4644): 10.5 ± 0.2 mPa·s
viscosity (293.15 K, x1 = 0.5145): 12.7 ± 0.3 mPa·s
viscosity (293.15 K, x1 = 0.5653): 15.4 ± 0.3 mPa·s
viscosity (293.15 K, x1 = 0.6169): 18.9 ± 0.4 mPa·s
viscosity (293.15 K, x1 = 0.6692): 23.4 ± 0.5 mPa·s
viscosity (293.15 K, x1 = 0.7223): 29.2 ± 0.6 mPa·s
viscosity (293.15 K, x1 = 0.7762): 36.7 ± 0.8 mPa·s
viscosity (293.15 K, x1 = 0.8309): 46.5 ± 1 mPa·s
viscosity (293.15 K, x1 = 0.8864): 59.2 ± 1.2 mPa·s
viscosity (293.15 K, x1 = 0.9428): 75.2 ± 1.6 mPa·s
viscosity (298.15 K, x1 = 0.0436): 2.25 ± 0.05 mPa·s
viscosity (298.15 K, x1 = 0.0879): 2.59 ± 0.05 mPa·s
viscosity (298.15 K, x1 = 0.1327): 2.97 ± 0.06 mPa·s
viscosity (298.15 K, x1 = 0.1781): 3.4 ± 0.07 mPa·s
viscosity (298.15 K, x1 = 0.2242): 3.92 ± 0.08 mPa·s
viscosity (298.15 K, x1 = 0.2709): 4.53 ± 0.09 mPa·s
viscosity (298.15 K, x1 = 0.3183): 5.27 ± 0.11 mPa·s
viscosity (298.15 K, x1 = 0.3663): 6.19 ± 0.13 mPa·s
viscosity (298.15 K, x1 = 0.415): 7.3 ± 0.15 mPa·s
viscosity (298.15 K, x1 = 0.4644): 8.6 ± 0.18 mPa·s
viscosity (298.15 K, x1 = 0.5145): 10.3 ± 0.2 mPa·s
viscosity (298.15 K, x1 = 0.5653): 12.4 ± 0.3 mPa·s
viscosity (298.15 K, x1 = 0.6169): 15 ± 0.3 mPa·s
viscosity (298.15 K, x1 = 0.6692): 18.5 ± 0.4 mPa·s
viscosity (298.15 K, x1 = 0.7223): 22.9 ± 0.5 mPa·s
viscosity (298.15 K, x1 = 0.7762): 28.4 ± 0.6 mPa·s
viscosity (298.15 K, x1 = 0.8309): 35.7 ± 0.7 mPa·s
viscosity (298.15 K, x1 = 0.8864): 44.8 ± 0.9 mPa·s
viscosity (298.15 K, x1 = 0.9428): 56.4 ± 1.1 mPa·s
viscosity (303.15 K, x1 = 0.0436): 2.06 ± 0.04 mPa·s
viscosity (303.15 K, x1 = 0.0879): 2.35 ± 0.05 mPa·s
viscosity (303.15 K, x1 = 0.1327): 2.68 ± 0.06 mPa·s
viscosity (303.15 K, x1 = 0.1781): 3.06 ± 0.06 mPa·s
viscosity (303.15 K, x1 = 0.2242): 3.51 ± 0.07 mPa·s
viscosity (303.15 K, x1 = 0.2709): 4.05 ± 0.08 mPa·s
viscosity (303.15 K, x1 = 0.3183): 4.7 ± 0.1 mPa·s
viscosity (303.15 K, x1 = 0.3663): 5.47 ± 0.11 mPa·s
viscosity (303.15 K, x1 = 0.415): 6.4 ± 0.13 mPa·s
viscosity (303.15 K, x1 = 0.4644): 7.5 ± 0.15 mPa·s
viscosity (303.15 K, x1 = 0.5145): 8.9 ± 0.18 mPa·s
viscosity (303.15 K, x1 = 0.5653): 10.6 ± 0.2 mPa·s
viscosity (303.15 K, x1 = 0.6169): 12.8 ± 0.3 mPa·s
viscosity (303.15 K, x1 = 0.6692): 15.6 ± 0.3 mPa·s
viscosity (303.15 K, x1 = 0.7223): 19.1 ± 0.4 mPa·s
viscosity (303.15 K, x1 = 0.7762): 23.5 ± 0.5 mPa·s
viscosity (303.15 K, x1 = 0.8309): 29.3 ± 0.6 mPa·s
viscosity (303.15 K, x1 = 0.8864): 36.4 ± 0.7 mPa·s
viscosity (303.15 K, x1 = 0.9428): 45.4 ± 0.9 mPa·s
viscosity (308.15 K, x1 = 0.0436): 1.81 ± 0.04 mPa·s
viscosity (308.15 K, x1 = 0.0879): 2.06 ± 0.04 mPa·s
viscosity (308.15 K, x1 = 0.1327): 2.34 ± 0.05 mPa·s
viscosity (308.15 K, x1 = 0.1781): 2.66 ± 0.06 mPa·s
viscosity (308.15 K, x1 = 0.2242): 3.05 ± 0.06 mPa·s
viscosity (308.15 K, x1 = 0.2709): 3.49 ± 0.07 mPa·s
viscosity (308.15 K, x1 = 0.3183): 4 ± 0.08 mPa·s
viscosity (308.15 K, x1 = 0.3663): 4.63 ± 0.1 mPa·s
viscosity (308.15 K, x1 = 0.415): 5.38 ± 0.11 mPa·s
viscosity (308.15 K, x1 = 0.4644): 6.3 ± 0.13 mPa·s
viscosity (308.15 K, x1 = 0.5145): 7.4 ± 0.15 mPa·s
viscosity (308.15 K, x1 = 0.5653): 8.8 ± 0.18 mPa·s
viscosity (308.15 K, x1 = 0.6169): 10.5 ± 0.2 mPa·s
viscosity (308.15 K, x1 = 0.6692): 12.7 ± 0.3 mPa·s
viscosity (308.15 K, x1 = 0.7223): 15.4 ± 0.3 mPa·s
viscosity (308.15 K, x1 = 0.7762): 18.9 ± 0.4 mPa·s
viscosity (308.15 K, x1 = 0.8309): 23.2 ± 0.5 mPa·s
viscosity (308.15 K, x1 = 0.8864): 28.6 ± 0.6 mPa·s
viscosity (308.15 K, x1 = 0.9428): 35.5 ± 0.7 mPa·s
viscosity (313.15 K, x1 = 0.0436): 1.67 ± 0.04 mPa·s
viscosity (313.15 K, x1 = 0.0879): 1.89 ± 0.04 mPa·s
viscosity (313.15 K, x1 = 0.1327): 2.13 ± 0.04 mPa·s
viscosity (313.15 K, x1 = 0.1781): 2.41 ± 0.05 mPa·s
viscosity (313.15 K, x1 = 0.2242): 2.73 ± 0.06 mPa·s
viscosity (313.15 K, x1 = 0.2709): 3.13 ± 0.07 mPa·s
viscosity (313.15 K, x1 = 0.3183): 3.55 ± 0.07 mPa·s
viscosity (313.15 K, x1 = 0.3663): 4.08 ± 0.08 mPa·s
viscosity (313.15 K, x1 = 0.415): 4.7 ± 0.1 mPa·s
viscosity (313.15 K, x1 = 0.4644): 5.47 ± 0.11 mPa·s
viscosity (313.15 K, x1 = 0.5145): 6.4 ± 0.13 mPa·s
viscosity (313.15 K, x1 = 0.5653): 7.5 ± 0.15 mPa·s
viscosity (313.15 K, x1 = 0.6169): 8.9 ± 0.18 mPa·s
viscosity (313.15 K, x1 = 0.6692): 10.7 ± 0.2 mPa·s
viscosity (313.15 K, x1 = 0.7223): 12.9 ± 0.3 mPa·s
viscosity (313.15 K, x1 = 0.7762): 15.6 ± 0.3 mPa·s
viscosity (313.15 K, x1 = 0.8309): 19 ± 0.4 mPa·s
viscosity (313.15 K, x1 = 0.8864): 23.3 ± 0.5 mPa·s
viscosity (313.15 K, x1 = 0.9428): 28.7 ± 0.6 mPa·s
viscosity (318.15 K, x1 = 0.0436): 1.55 ± 0.03 mPa·s
viscosity (318.15 K, x1 = 0.0879): 1.74 ± 0.04 mPa·s
viscosity (318.15 K, x1 = 0.1327): 1.96 ± 0.04 mPa·s
viscosity (318.15 K, x1 = 0.1781): 2.21 ± 0.05 mPa·s
viscosity (318.15 K, x1 = 0.2242): 2.53 ± 0.05 mPa·s
